In patent US20100003250A1, “(2-ARYL-7H-PYRROLO[2,3-D]PYRIMIDIN-4-YL)MORPHOLINE COMPOUNDS, THEIR USE AS MTOR KINASE AND PI3 KINASE INHIBITORS, AND THEIR SYNTHESES” (Wyeth, priority 2008, published 2010):

Key:
Assay type in all cases: biochemical
PI3Kα = PI3Kα (Homo sapiens, UniProt P42336); assay: PI3K-alpha fluorescence polarization assay; details: 20 μM PIP2, 25 μM ATP; read-out: PI3Kα Median IC50
mTOR Kinase (FLAG-TOR) = target: T1, mTOR Kinase (FLAG-TOR) (Homo sapiens, UniProt P42345); assay: mTOR kinase assay, purified enzyme, DELFIA format; details: 100 μM ATP, 1.25 μM His6-S6K; read-out: mTOR Kinase Median IC50
T1 construct: FLAG

PI3Kγ = PI3Kγ (Homo sapiens, UniProt P48736); assay: PI3K-gamma fluorescence polarization assay; details: 20 μM PIP2, 25 μM ATP; read-out: PI3Kγ Median IC50
Procedure: PI3K-alpha and PI3K-gamma Fluorescence Polarization Assay Protocols
The reaction buffer was 20 mM HEPES pH 7.5, 2 mM MgCl2, 0.05% CHAPS, and 0.01% βME (added fresh). The substrate solution was 40 μM PIP2 (diC8, Echelon, Salt Lake City Utah cat # P-4508, 1 mM in water) and 50 μM ATP in the reaction buffer. Nunc 384-well black polypropylene fluorescent plates were used for PI3K assays. The assay is run by putting 9.5 μl of freshly diluted enzyme in the reaction buffer per well, adding 0.5 μl of diluted drug or DMSO, and mixing. Then 10 μl of the substrate solution is added to each well to start the reaction. A final concentration of 20 μM PIP2 and 25 μM ATP in the reaction was used. Reactions were allowed to proceed for 30-60 minutes at room temperature. After 30-60 minutes, 20 μl of a solution of 10 nM TAMRA detector (Red detector probe-Echelon) and 2.5 μM of GST-murineGRP (1.5 mg/ml in 17% glycerol) was added per well to stop the reaction. The resulting solution was mixed well and allowed to stand for 90-110 minutes before reading plate. Assay Plates were read on Perkin-Elmer Envision plate readers with appropriate filters for Tamra [BODIPY-TMRI(1,3,4,5)P4]. Data obtained were used to calculate enzymatic activity and enzyme inhibition by inhibitor compounds. It is important to keep Red probe solutions dark. This procedure is adapted from Echelon Biosciences Inc procedure for their PI3-Kinase fluorescence polarization activity Assay kit Product number K-1100.

Sequence of PI3Kα (P42336 whole entry, species assumed): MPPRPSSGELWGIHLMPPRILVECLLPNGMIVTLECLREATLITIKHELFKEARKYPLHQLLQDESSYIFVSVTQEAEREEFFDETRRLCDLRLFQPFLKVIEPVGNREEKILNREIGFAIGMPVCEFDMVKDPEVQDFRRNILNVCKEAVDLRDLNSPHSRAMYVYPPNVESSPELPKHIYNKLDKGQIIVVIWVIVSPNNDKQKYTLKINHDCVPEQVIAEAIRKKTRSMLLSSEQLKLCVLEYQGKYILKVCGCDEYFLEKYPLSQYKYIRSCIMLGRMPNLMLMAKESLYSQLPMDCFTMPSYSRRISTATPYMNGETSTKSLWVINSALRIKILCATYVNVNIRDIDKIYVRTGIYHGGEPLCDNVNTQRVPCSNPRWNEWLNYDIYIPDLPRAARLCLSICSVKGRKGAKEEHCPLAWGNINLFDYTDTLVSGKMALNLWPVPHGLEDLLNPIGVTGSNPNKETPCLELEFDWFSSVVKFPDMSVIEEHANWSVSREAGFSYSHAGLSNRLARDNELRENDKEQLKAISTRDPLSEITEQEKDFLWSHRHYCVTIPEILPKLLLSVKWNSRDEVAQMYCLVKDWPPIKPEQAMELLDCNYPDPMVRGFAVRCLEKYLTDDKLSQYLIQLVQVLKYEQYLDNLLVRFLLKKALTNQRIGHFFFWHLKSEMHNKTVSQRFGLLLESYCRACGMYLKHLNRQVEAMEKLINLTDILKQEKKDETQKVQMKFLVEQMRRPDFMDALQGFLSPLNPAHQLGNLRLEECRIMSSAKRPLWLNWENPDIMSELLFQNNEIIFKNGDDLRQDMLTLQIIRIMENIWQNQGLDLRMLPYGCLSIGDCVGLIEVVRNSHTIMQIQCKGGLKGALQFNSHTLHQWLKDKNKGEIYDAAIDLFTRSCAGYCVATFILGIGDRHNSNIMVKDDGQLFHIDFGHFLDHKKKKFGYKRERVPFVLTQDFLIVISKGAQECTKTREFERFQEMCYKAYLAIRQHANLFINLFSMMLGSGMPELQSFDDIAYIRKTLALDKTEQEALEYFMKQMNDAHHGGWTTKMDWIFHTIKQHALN
Sequence of PI3Kα (P27986 whole entry partner, species assumed): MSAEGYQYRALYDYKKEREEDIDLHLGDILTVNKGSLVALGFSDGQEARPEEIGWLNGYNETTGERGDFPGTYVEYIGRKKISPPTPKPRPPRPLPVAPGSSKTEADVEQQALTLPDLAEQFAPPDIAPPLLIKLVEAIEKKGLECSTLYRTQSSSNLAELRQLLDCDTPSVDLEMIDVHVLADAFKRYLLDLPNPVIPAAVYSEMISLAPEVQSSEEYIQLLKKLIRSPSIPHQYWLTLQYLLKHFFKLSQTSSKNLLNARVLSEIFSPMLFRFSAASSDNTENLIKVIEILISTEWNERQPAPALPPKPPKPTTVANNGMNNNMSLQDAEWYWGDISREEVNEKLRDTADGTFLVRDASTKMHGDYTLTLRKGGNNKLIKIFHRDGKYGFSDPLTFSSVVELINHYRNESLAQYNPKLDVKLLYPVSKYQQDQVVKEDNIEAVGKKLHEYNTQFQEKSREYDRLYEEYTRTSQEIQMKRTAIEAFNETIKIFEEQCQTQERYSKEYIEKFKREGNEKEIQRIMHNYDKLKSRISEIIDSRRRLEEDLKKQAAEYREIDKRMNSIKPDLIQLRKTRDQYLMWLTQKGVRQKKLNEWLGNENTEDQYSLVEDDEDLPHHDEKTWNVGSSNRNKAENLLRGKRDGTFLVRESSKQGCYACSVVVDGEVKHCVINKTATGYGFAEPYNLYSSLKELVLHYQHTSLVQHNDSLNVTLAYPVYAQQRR
Sequence of PI3Kγ (P48736 whole entry, species assumed): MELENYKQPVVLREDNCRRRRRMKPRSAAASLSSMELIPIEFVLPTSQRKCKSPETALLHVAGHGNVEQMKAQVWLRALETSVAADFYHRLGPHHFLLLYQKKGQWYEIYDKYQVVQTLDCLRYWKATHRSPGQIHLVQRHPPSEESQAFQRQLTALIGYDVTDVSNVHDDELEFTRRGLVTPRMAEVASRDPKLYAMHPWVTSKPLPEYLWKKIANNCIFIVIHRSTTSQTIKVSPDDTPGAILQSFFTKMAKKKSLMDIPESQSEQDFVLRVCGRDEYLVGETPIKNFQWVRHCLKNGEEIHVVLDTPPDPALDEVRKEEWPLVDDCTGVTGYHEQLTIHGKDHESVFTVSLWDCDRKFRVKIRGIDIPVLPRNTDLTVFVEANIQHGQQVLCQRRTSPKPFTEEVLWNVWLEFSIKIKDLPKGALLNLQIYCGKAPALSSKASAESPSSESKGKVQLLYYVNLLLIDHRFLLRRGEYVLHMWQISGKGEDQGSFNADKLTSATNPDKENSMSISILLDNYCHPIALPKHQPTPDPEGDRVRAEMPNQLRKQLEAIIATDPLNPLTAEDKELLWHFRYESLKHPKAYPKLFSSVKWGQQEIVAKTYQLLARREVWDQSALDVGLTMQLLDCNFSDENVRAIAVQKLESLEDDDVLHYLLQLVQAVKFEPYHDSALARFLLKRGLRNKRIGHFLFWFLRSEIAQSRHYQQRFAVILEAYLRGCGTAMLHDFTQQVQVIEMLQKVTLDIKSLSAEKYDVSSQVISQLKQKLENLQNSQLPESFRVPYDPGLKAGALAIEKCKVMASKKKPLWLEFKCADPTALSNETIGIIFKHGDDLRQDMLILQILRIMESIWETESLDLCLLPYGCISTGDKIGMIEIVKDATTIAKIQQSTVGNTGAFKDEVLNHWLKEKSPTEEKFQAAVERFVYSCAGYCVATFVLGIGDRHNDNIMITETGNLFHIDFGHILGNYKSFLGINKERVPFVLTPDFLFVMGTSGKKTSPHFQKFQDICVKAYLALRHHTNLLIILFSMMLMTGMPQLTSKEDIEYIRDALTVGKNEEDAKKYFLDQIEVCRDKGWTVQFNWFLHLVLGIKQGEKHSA

Compound	IC50 (PI3Kα)	IC50 (mTOR Kinase (FLAG-TOR))	IC50 (PI3Kγ)
CC(C)n1ccc2c(N3CCOCC3)nc(-c3ccc(NC(=O)Nc4ccc(OCCN(C)C)cc4)cc3)nc21 [Compound 81, 1-{4-[2-(dimethylamino)ethoxy]phenyl}-3-[4-(7-isopropyl-4-morpholin-4-yl-7H-pyrrolo[2,3-d]pyrimidin-2-yl)phenyl]urea]	34 nM	2.95 nM	219 nM
CN(C)CCNCCn1ccc2c(N3CCOCC3)nc(-c3ccc(NC(=O)Nc4ccncc4)cc3)nc21 [Compound 27, 1-{4-[7-(2-{[2-(dimethylamino)ethyl]amino}ethyl)-4-morpholin-4-yl-7H-pyrrolo[2,3-d]pyrimidin-2-yl]phenyl}-3-pyridin-4-ylurea]			424 nM
O=C(Nc1ccncc1)Nc1ccc(-c2nc(N3CCOCC3)c3ccn(CCN4CCCC4)c3n2)cc1 [Compound 23, 1-{4-[4-morpholin-4-yl-7-(2-pyrrolidin-1-ylethyl)-7H-pyrrolo[2,3-d]pyrimidin-2-yl]phenyl}-3-pyridin-4-ylurea]			370 nM
CN1CCN(CCn2ccc3c(N4CCOCC4)nc(-c4ccc(NC(=O)Nc5ccncc5)cc4)nc32)CC1 [Compound 28, 1-(4-{7-[2-(4-methylpiperazin-1-yl)ethyl]-4-morpholin-4-yl-7H-pyrrolo[2,3-d]pyrimidin-2-yl}phenyl)-3-pyridin-4-ylurea]		24 nM	317 nM
CN(C)CCn1ccc2c(N3CCOCC3)nc(-c3ccc(NC(=O)Nc4ccncc4)cc3)nc21 [Compound 12, 1-(4-{7-[2-(dimethylamino)ethyl]-4-morpholin-4-yl-7H-pyrrolo[2,3-d]pyrimidin-2-yl}phenyl)-3-pyridin-4-ylurea]	11 nM		36 nM
O=C(Nc1ccncc1)Nc1ccc(-c2nc(N3CCOCC3)c3ccn(CC(F)(F)F)c3n2)cc1 [Compound 36, 1-{4-[4-morpholin-4-yl-7-(2,2,2-trifluoroethyl)-7H-pyrrolo[2,3-d]pyrimidin-2-yl]phenyl}-3-pyridin-4-ylurea]			63 nM
O=C(Nc1ccncc1)Nc1ccc(-c2nc(N3CCOCC3)c3ccn(CCN4CCNCC4)c3n2)cc1 [Compound 29, 1-{4-[4-morpholin-4-yl-7-(2-piperazin-1-ylethyl)-7H-pyrrolo[2,3-d]pyrimidin-2-yl]phenyl}-3-pyridin-4-ylurea]			36 nM
COC(Cn1ccc2c(N3CCOCC3)nc(-c3ccc(NC(=O)Nc4ccncc4)cc3)nc21)OC [Compound 21, 1-{4-[7-(2,2-dimethoxyethyl)-4-morpholin-4-yl-7H-pyrrolo[2,3-d]pyrimidin-2-yl]phenyl}-3-pyridin-4-ylurea]			170 nM
O=C(Nc1ccncc1)Nc1ccc(-c2nc(N3CCOCC3)c3ccn(CCN4CCCCC4)c3n2)cc1 [Compound 24, 1-{4-[4-morpholin-4-yl-7-(2-piperidin-1-ylethyl)-7H-pyrrolo[2,3-d]pyrimidin-2-yl]phenyl}-3-pyridin-4-ylurea]			774 nM
CN(C)CCN(C)C(=O)c1ccc(NC(=O)Nc2ccc(-c3nc(N4CCOCC4)c4ccn(CC(F)(F)F)c4n3)cc2)cc1 [Compound 51, N-[2-(dimethylamino)ethyl]-N-methyl-4-[({4-[4-morpholin-4-yl-7-(2,2,2-trifluoroethyl)-7H-pyrrolo[2,3-d]pyrimidin-2-yl]phenyl}carbamoyl)amino]benzamide]		0.48 nM	14 nM
CN(C)C1CCN(C(=O)c2ccc(NC(=O)Nc3ccc(-c4nc(N5CCOCC5)c5ccn(CC(F)(F)F)c5n4)cc3)cc2)CC1 [Compound 57, 1-(4-{[4-(dimethylamino)piperidin-1-yl]carbonyl}phenyl)-3-{4-[4-morpholin-4-yl-7-(2,2,2-trifluoroethyl)-7H-pyrrolo[2,3-d]pyrimidin-2-yl]phenyl}urea]		1.7 nM	27 nM

Other lines, results leading:

IC50 (PI3Kα)	IC50 (mTOR Kinase (FLAG-TOR))	IC50 (PI3Kγ)	Compound
1080 nM	300 nM	5230 nM	O=C(Nc1nc2cc(-c3nc(N4CCOCC4)c4ccn(CC(F)(F)F)c4n3)ccc2[nH]1)c1ccncc1 [Compound 47, N-{5-[4-morpholin-4-yl-7-(2,2,2-trifluoroethyl)-7H-pyrrolo[2,3-d]pyrimidin-2-yl]-1H-benzimidazol-2-yl}isonicotinamide]
		7 nM	O=CCn1ccc2c(N3CCOCC3)nc(-c3ccc(NC(=O)Nc4ccncc4)cc3)nc21 [Compound 22, 1-{4-[4-morpholin-4-yl-7-(2-oxoethyl)-7H-pyrrolo[2,3-d]pyrimidin-2-yl]phenyl}-3-pyridin-4-ylurea]
		338 nM	Oc1cccc(-c2nc(N3CCOCC3)c3cc[nH]c3n2)c1 [Compound 2, 3-(4-morpholin-4-yl-7H-pyrrolo[2,3-d]pyrimidin-2-yl)phenol]
		65 nM	O=C(Nc1ccncc1)Nc1ccc(-c2nc(N3CCOCC3)c3cc[nH]c3n2)cc1 [Compound 4, 1-[4-(4-morpholin-4-yl-7H-pyrrolo[2,3-d]pyrimidin-2-yl)phenyl]-3-pyridin-4-ylurea]
	> 800 nM	1680 nM	CN(C)CCn1ccc2c(N3CCOCC3)nc(-c3cccc(O)c3)nc21 [Compound 6, 3-{7-[2-(dimethylamino)ethyl]-4-morpholin-4-yl-7H-pyrrolo[2,3-d]pyrimidin-2-yl}phenol]
	> 800 nM	712 nM	CN(C)CCn1ccc2c(N3CCOCC3)nc(-c3cccc(CO)c3)nc21 [Compound 7, (3-{7-[2-(dimethylamino)ethyl]-4-morpholin-4-yl-7H-pyrrolo[2,3-d]pyrimidin-2-yl}phenyl)methanol]
		626 nM	CN(C)CCn1ccc2c(N3CCOCC3)nc(-c3ccc(NC(=O)Nc4ccccn4)cc3)nc21 [Compound 11, 1-(4-{7-[2-(dimethylamino)ethyl]-4-morpholin-4-yl-7H-pyrrolo[2,3-d]pyrimidin-2-yl}phenyl)-3-pyridin-2-ylurea]
		752 nM	OCc1cccc(-c2nc(N3CCOCC3)c3cc[nH]c3n2)c1 [Compound 1, [3-(4-morpholin-4-yl-7H-pyrrolo[2,3-d]pyrimidin-2-yl)phenyl]methanol]
	30 nM	538 nM	CCNC(=O)Nc1ccc(-c2nc(N3CCOCC3)c3ccn(CCN(C)C)c3n2)cc1 [Compound 16, 1-(4-{7-[2-(dimethylamino)ethyl]-4-morpholin-4-yl-7H-pyrrolo[2,3-d]pyrimidin-2-yl}phenyl)-3-ethylurea]
	2.95 nM	102 nM	CN(C)CCn1ccc2c(N3CCOCC3)nc(-c3ccc(NC(=O)Nc4cccnc4)cc3)nc21 [Compound 9, 1-(4-{7-[2-(dimethylamino)ethyl]-4-morpholin-4-yl-7H-pyrrolo[2,3-d]pyrimidin-2-yl}phenyl)-3-pyridin-3-ylurea]
	33 nM	813 nM	CNC(=O)Nc1ccc(-c2nc(N3CCOCC3)c3ccn(CCN(C)C)c3n2)cc1 [Compound 17, 1-(4-{7-[2-(dimethylamino)ethyl]-4-morpholin-4-yl-7H-pyrrolo[2,3-d]pyrimidin-2-yl}phenyl)-3-methylurea]
4 nM		40 nM	O=C(Nc1ccncc1)Nc1ccc(-c2nc(N3CCOCC3)c3ccn(CCO)c3n2)cc1 [Compound 34, 1-{4-[7-(2-hydroxyethyl)-4-morpholin-4-yl-7H-pyrrolo[2,3-d]pyrimidin-2-yl]phenyl}-3-pyridin-4-ylurea]
	7.75 nM	176 nM	CN(C)CCn1ccc2c(N3CCOCC3)nc(-c3ccc(NC(=O)Nc4ccc(F)cc4)cc3)nc21 [Compound 13, 1-(4-{7-[2-(dimethylamino)ethyl]-4-morpholin-4-yl-7H-pyrrolo[2,3-d]pyrimidin-2-yl}phenyl)-3-(4-fluorophenyl)urea]
